Experimental data from patent publication US20230146455A1, “TREATMENT OF INFLAMMATORY DISEASES WITH PEPTIDES AND PHARMACEUTICAL COMPOSITIONS” (Yuyu Pharma, Inc., priority 2020, published 2023).
Several values for one entry are separate records, joined by “and”; a condition that tells them apart may be missing. Equal values may be shown once. Where a SMILES comes first, the peptide text is derived from it. [ ]: non-standard residue; d: D form. Hyp = O=C(O)[C@@H]1C[C@@H](O)CN1

What was measured:
IL-1 beta/IL-1F2 = assay: Example 9 Luminex, LPS hPBMCs: IL-1 beta/IL-1F2; assay type: cell-based, human
Procedure: (§1) Treatment Human PBMCs were pretreated with YY-101, YDE-011 and YDE-043 or reference compound; Xiidra® at various concentration (ranging from 1 nM to 100 uM) for 2 h before stimulation. An equal volume of 0.5% DMSO was used as a vehicle control. Then, the cells were treated with LPS at 5 ug/ml. The supernatants from treated cells were harvested at 24 h and placed in a 96 well for Luminex cytokine & chemokine profiling using a Luminex 200 multiplex assay (Luminex; R&D system, USA).
(§2) The main study arm with triplicate wells per group in a 24-well plate: • 1. Blank • 2. PBMC: 0.5% DMSO • 3. PBMC+LPS (5 ug/ml) • 4. PBMC+YY-101 100 uM • 5. PBMC+YY-101 10 uM • 6. PBMC+YY-101 1 uM • 7. PBMC+YY-101 0.1 uM • 8. PBMC+YY-101 0.01 uM • 9. PBMC+LPS (5 ug/ml)+Xiidra®100 uM • 10. PBMC+LPS (5 ug/ml)+Xiidra® 10 uM • 11. PBMC+LPS (5 ug/ml)+Xiidra® 1 uM • 12. PBMC+LPS (5 ug/ml)+Xiidra®0.1 uM • 13. PBMC+LPS (5 ug/ml)+Xiidra®0.01 uM • 14. PBMC+LPS (5 ug/ml)+Xiidra®0.001 uM • 15. PBMC+LPS (5 ug/ml)+YY-101 100 uM • 16. PBMC+LPS (5 ug/ml)+YY-101 10 uM • 17. PBMC+LPS (5 ug/ml)+YY-101 1 uM • 18. PBMC+LPS (5 ug/ml)+YY-101 0.1 uM • 19. PBMC+LPS (5 ug/ml)+YY-101 0.01 uM • 20. PBMC+LPS (5 ug/ml)+YY-101 0.001 uM • 21. PBMC+LPS (5 ug/ml)+YDE-011 100 uM • 22. PBMC+LPS (5 ug/ml)+YDE-011 10 uM • 23. PBMC+LPS (5 ug/ml)+YDE-011 1 uM • 24. PBMC+LPS (5 ug/ml)+YDE-011 0.1 uM • 25. PBMC+LPS (5 ug/ml)+YDE-011 0.01 uM • 26. PBMC+LPS (5 ug/ml)+YDE-011 0.001 uM • 27. PBMC+LPS (5 ug/ml)+YDE-043 100 uM • 28. PBMC+LPS (5 ug/ml)+YDE-043 10 uM • 29. PBMC+LPS (5 ug/ml)+YDE-043 1 uM • 30. PBMC+LPS (5 ug/ml)+YDE-043 0.1 uM • 31. PBMC+LPS (5 ug/ml)+YDE-043 0.01 uM • 32. PBMC+LPS (5 ug/ml)+YDE-043 0.001 uM
(§3) Multiplex assay was used to measure 30 cytokines and chemokines. The 1:2, 1:10 and 1:200 diluted cell supernatant and serial dilution of the standard were dispensed into a 96 well plate at 50 ul/well. Then, the pre-mixed cocktail of antibody-coated magnetic beads was dispensed at 50 ul/well and incubated at room temperature for 2 h in a horizontal orbital microplate shaker at 800±500 rpm. The beads were washed using a magnetic device to prevent loss. The biotin-antibody was dispensed in 50 ul of each well and incubated at room temperature for 1 h in a shaker at 800±500 rpm. After washing, streptavidin-PE was added at 50 ul/well and incubated at room temperature for 30 min in a shaker under the same conditions. Finally, after washing, wash buffer (100 ul/well) was added to the plate and incubated in a shaker for 2 min. The Luminex™ 200 setting were set according to the manufacturer's protocol. The data was calculated with a standard five-parameter logistic nonlinear regression analysis of the data (xPonent software 4.2, USA). The levels of cytokine/chemokine are normalized to the live cell counts (1×10^5 cells/mL) and presented as concentrations per mL (pg/mL or ng/mL).

MMP-9 = assay: Example 9 Luminex, LPS hPBMCs: MMP-9; assay type: cell-based, human
Procedure: as §1, §2, §3

[1] = PBMC + LPS(5 ug/ml) + test article 0.001 uM, Mean
[2] = PBMC + LPS(5 ug/ml) + test article 0.001 uM, single replicates
[3] = PBMC + LPS(5 ug/ml) + test article 0.01 uM, Mean
[4] = PBMC + LPS(5 ug/ml) + test article 0.01 uM, single replicates
[5] = PBMC + LPS(5 ug/ml) + test article 0.1 uM, Mean
[6] = PBMC + LPS(5 ug/ml) + test article 0.1 uM, single replicates
[7] = PBMC + LPS(5 ug/ml) + test article 1 uM, Mean
[8] = PBMC + LPS(5 ug/ml) + test article 1 uM, single replicates
[9] = PBMC + LPS(5 ug/ml) + test article 10 uM, Mean
[10] = PBMC + LPS(5 ug/ml) + test article 10 uM, single replicates
[11] = PBMC + LPS(5 ug/ml) + test article 100 uM, Mean
[12] = PBMC + LPS(5 ug/ml) + test article 100 uM, single replicates
[13] = PBMC + LPS(5 ug/ml) + 0.001 uM, Mean
[14] = PBMC + LPS(5 ug/ml) + 0.001 uM, single replicates
[15] = PBMC + LPS(5 ug/ml) + 0.01 uM, Mean
[16] = PBMC + LPS(5 ug/ml) + 0.01 uM, single replicates
[17] = PBMC + LPS(5 ug/ml) + 0.1 uM, Mean
[18] = PBMC + LPS(5 ug/ml) + 0.1 uM, single replicates
[19] = PBMC + LPS(5 ug/ml) + 1 uM, Mean
[20] = PBMC + LPS(5 ug/ml) + 1 uM, single replicates
[21] = PBMC + LPS(5 ug/ml) + 10 uM, Mean
[22] = PBMC + LPS(5 ug/ml) + 10 uM, single replicates
[23] = PBMC + LPS(5 ug/ml) + 100 uM, Mean
[24] = PBMC + LPS(5 ug/ml) + 100 uM, single replicates

Q: How did the Concentration (IL-1 beta/IL-1F2; [1]) turn out when `CC(C)C[C@H](NC(=O)CNC(=O)[C@H](CC(C)C)NC(=O)[C@H](CCC(N)=O)NC(=O)CNC(=O)[C@@H]1C[C@@H](O)CN1)C(=O)N[C@@H](C)C(=O)NCC(=O)N1CCC[C@H]1C(=O)N[C@@H](CCCCN)C(=O)O` [YDE-011] (H-[Hyp]GQLGLAGPK-OH) was run?
A: 6481.9 pg/mL

Q: And the MFI (IL-1 beta/IL-1F2; [1])?
A: 1671.0

Q: And the conc/live cell (IL-1 beta/IL-1F2; [1])?
A: 1225.5 pg/10^5

Q: What about the Concentration (IL-1 beta/IL-1F2; [2]) of the same compound?
A: 6498.5 pg/mL and 6544.6 pg/mL and 6402.7 pg/mL

Q: What about the MFI (IL-1 beta/IL-1F2; [2]) of the same compound?
A: 1675.5 and 1688.0 and 1649.5

Q: And the conc/live cell (IL-1 beta/IL-1F2; [2])?
A: 1444.1 pg/10^5 and 1128.4 pg/10^5 and 1103.9 pg/10^5

Q: And the Concentration (IL-1 beta/IL-1F2; [3])?
A: 6567.3 pg/mL

Q: And the MFI (IL-1 beta/IL-1F2; [3])?
A: 1694.2

Q: And the conc/live cell (IL-1 beta/IL-1F2; [3])?
A: 1128.7 pg/10^5

Q: And the Concentration (IL-1 beta/IL-1F2; [4])?
A: 6557.5 pg/mL and 6476.4 pg/mL and 6668.1 pg/mL

Q: What about the MFI (IL-1 beta/IL-1F2; [4]) of the same compound?
A: 1691.5 and 1669.5 and 1721.5

Q: What about the conc/live cell (IL-1 beta/IL-1F2; [4]) of the same compound?
A: 1057.7 pg/10^5 and 1269.9 pg/10^5 and 1058.4 pg/10^5

Q: What about the Concentration (IL-1 beta/IL-1F2; [5]) of the same compound?
A: 6345.6 pg/mL

Q: What about the MFI (IL-1 beta/IL-1F2; [5]) of the same compound?
A: 1634.0

Q: What about the conc/live cell (IL-1 beta/IL-1F2; [5]) of the same compound?
A: 1115.2 pg/10^5

Q: What about the Concentration (IL-1 beta/IL-1F2; [6]) of the same compound?
A: 6305.1 pg/mL and 6376.9 pg/mL and 6354.8 pg/mL

Q: What about the MFI (IL-1 beta/IL-1F2; [6]) of the same compound?
A: 1623.0 and 1642.5 and 1636.5

Q: And the conc/live cell (IL-1 beta/IL-1F2; [6])?
A: 955.3 pg/10^5 and 1275.4 pg/10^5 and 1114.9 pg/10^5

Q: What about the Concentration (IL-1 beta/IL-1F2; [7]) of the same compound?
A: 6587.0 pg/mL

Q: What about the MFI (IL-1 beta/IL-1F2; [7]) of the same compound?
A: 1699.5

Q: And the conc/live cell (IL-1 beta/IL-1F2; [7])?
A: 1314.4 pg/10^5

Q: And the Concentration (IL-1 beta/IL-1F2; [8])?
A: 6553.8 pg/mL and 6454.2 pg/mL and 6753.1 pg/mL

Q: And the MFI (IL-1 beta/IL-1F2; [8])?
A: 1690.5 and 1663.5 and 1744.5

Q: And the conc/live cell (IL-1 beta/IL-1F2; [8])?
A: 1191.6 pg/10^5 and 1344.6 pg/10^5 and 1406.9 pg/10^5

Q: And the Concentration (IL-1 beta/IL-1F2; [9])?
A: 6933.0 pg/mL

Q: And the MFI (IL-1 beta/IL-1F2; [9])?
A: 1793.2

Q: And the conc/live cell (IL-1 beta/IL-1F2; [9])?
A: 1319.4 pg/10^5

Q: What about the Concentration (IL-1 beta/IL-1F2; [10]) of the same compound?
A: 7010.0 pg/mL and 6782.6 pg/mL and 7006.3 pg/mL

Q: What about the MFI (IL-1 beta/IL-1F2; [10]) of the same compound?
A: 1814.0 and 1752.5 and 1813.0

Q: What about the conc/live cell (IL-1 beta/IL-1F2; [10]) of the same compound?
A: 1298.1 pg/10^5 and 1169.4 pg/10^5 and 1490.7 pg/10^5

Q: What about the Concentration (IL-1 beta/IL-1F2; [11]) of the same compound?
A: 8675.0 pg/mL

Q: And the MFI (IL-1 beta/IL-1F2; [11])?
A: 2260.0

Q: What about the conc/live cell (IL-1 beta/IL-1F2; [11]) of the same compound?
A: 1430.0 pg/10^5

Q: What about the Concentration (IL-1 beta/IL-1F2; [12]) of the same compound?
A: 8497.8 pg/mL and 8918.4 pg/mL and 8608.8 pg/mL

Q: And the MFI (IL-1 beta/IL-1F2; [12])?
A: 2213.0 and 2324.5 and 2242.5

Q: And the conc/live cell (IL-1 beta/IL-1F2; [12])?
A: 1393.1 pg/10^5 and 1462.0 pg/10^5 and 1434.8 pg/10^5

Q: What about the “MMP-9 Concentration” value (MMP-9; [13]) of the same compound?
A: 206.3 pg/mL

Q: And the MMP-9 conc/live cell (MMP-9; [13])?
A: 39.4 pg/10^5

Q: What about the “MMP-9 Concentration” value (MMP-9; [14]) of the same compound?
A: 228.2 pg/mL and 186.3 pg/mL and 204.5 pg/mL

Q: And the MMP-9 conc/live cell (MMP-9; [14])?
A: 50.7 pg/10^5 and 32.1 pg/10^5 and 35.3 pg/10^5

Q: What about the “MMP-9 Concentration” value (MMP-9; [15]) of the same compound?
A: 180.2 pg/mL

Q: And the MMP-9 conc/live cell (MMP-9; [15])?
A: 31.1 pg/10^5

Q: What about the “MMP-9 Concentration” value (MMP-9; [16]) of the same compound?
A: 174.0 pg/ml (2×) and 192.4 pg/ml

Q: What about the MMP-9 conc/live cell (MMP-9; [16]) of the same compound?
A: 27.6 pg/10^5 and 28.1 pg/10^5 and 37.7 pg/10^5

Q: What about the “MMP-9 Concentration” value (MMP-9; [17]) of the same compound?
A: 180.2 pg/mL

Q: And the MMP-9 conc/live cell (MMP-9; [17])?
A: 31.5 pg/10^5

Q: And the “MMP-9 Concentration” value (MMP-9; [18])?
A: 192.4 pg/ml and 174.0 pg/ml (2×)

Q: And the MMP-9 conc/live cell (MMP-9; [18])?
A: 29.2 pg/10^5 and 34.8 pg/10^5 and 30.5 pg/10^5

Q: What about the “MMP-9 Concentration” value (MMP-9; [19]) of the same compound?
A: 188.3 pg/mL

Q: What about the MMP-9 conc/live cell (MMP-9; [19]) of the same compound?
A: 37.5 pg/10^5

Q: What about the “MMP-9 Concentration” value (MMP-9; [20]) of the same compound?
A: 192.4 pg/ml (2×) and 180.2 pg/ml

Q: And the MMP-9 conc/live cell (MMP-9; [20])?
A: 35.0 pg/10^5 and 37.5 pg/10^5 and 40.1 pg/10^5

Q: And the “MMP-9 Concentration” value (MMP-9; [21])?
A: 190.4 pg/mL

Q: And the MMP-9 conc/live cell (MMP-9; [21])?
A: 36.1 pg/10^5

Q: And the “MMP-9 Concentration” value (MMP-9; [22])?
A: 186.3 pg/ml (2×) and 198.5 pg/ml

Q: And the MMP-9 conc/live cell (MMP-9; [22])?
A: 34.5 pg/10^5 and 34.2 pg/10^5 and 39.6 pg/10^5

Q: And the “MMP-9 Concentration” value (MMP-9; [23])?
A: 167.8 pg/mL

Q: And the MMP-9 conc/live cell (MMP-9; [23])?
A: 27.7 pg/10^5

Q: And the “MMP-9 Concentration” value (MMP-9; [24])?
A: 167.8 pg/mL and 174.0 pg/mL and 161.5 pg/mL

Q: What about the MMP-9 conc/live cell (MMP-9; [24]) of the same compound?
A: 27.5 pg/10^5 and 28.5 pg/10^5 and 26.9 pg/10^5
